Here are results for six molecules from publication PMC9583330, “Quinazoline-4(3H)-one-7-carboxamide Derivatives as Human Soluble Epoxide Hydrolase Inhibitors with Developable 5-Lipoxygenase Activating Protein Inhibition” (ACS Omega, 2022).

Read-outs that look alike come from different tables or passages of the source.

In data set [1] the target is T1, Human recombinant sEH (Homo sapiens, UniProt P34913).
T1 construct: made in house; host or cells: Sf9 insect cells, recombinant baculovirus from Dr. B. Hammock
T1 sequence (P34913 1-555): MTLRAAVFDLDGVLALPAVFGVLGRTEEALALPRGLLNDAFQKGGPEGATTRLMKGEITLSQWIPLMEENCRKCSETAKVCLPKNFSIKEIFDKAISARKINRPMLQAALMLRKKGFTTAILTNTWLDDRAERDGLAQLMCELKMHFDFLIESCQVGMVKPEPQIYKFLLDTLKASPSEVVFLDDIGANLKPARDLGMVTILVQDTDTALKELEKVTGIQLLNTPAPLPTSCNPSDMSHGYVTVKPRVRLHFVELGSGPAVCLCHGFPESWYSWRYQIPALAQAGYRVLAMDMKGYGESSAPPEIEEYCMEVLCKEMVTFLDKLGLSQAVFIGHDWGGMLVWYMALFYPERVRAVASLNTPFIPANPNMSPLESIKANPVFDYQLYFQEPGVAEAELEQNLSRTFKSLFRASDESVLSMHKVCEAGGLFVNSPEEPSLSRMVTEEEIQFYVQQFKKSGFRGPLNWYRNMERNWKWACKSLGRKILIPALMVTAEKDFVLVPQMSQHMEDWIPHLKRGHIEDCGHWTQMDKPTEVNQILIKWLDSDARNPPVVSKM
Also noted: method as in PMID 32045233. Conditions: previously identified compound; cited from earlier work.

For data set [2], the system named is FLAP-mediated cellular LT formation in human neutrophils. Also noted: method as in PMID 32045233. Conditions: previously identified; read-out: IC50, inhibition of cellular leukotriene (LT) biosynthesis by targeting FLAP; cited from earlier work.
The target of data set [3] is T1, Human recombinant sEH. Nature of the data set: sEH cell-free fluorescence-based assay (PHOME substrate). Type of data set: biochemical. The note with it: means ± SEM, n = 3; for IC50: cell-free assay, human sEH; for remaining activity at 10 µM: residual activity at 10 μM, control = vehicle 100%. On the procedure: Human recombinant sEH was expressed and purified as reported before.[46] In brief, Sf9 cells were infected with a recombinant baculovirus (kindly provided by Dr. B. Hammock, University of California, Davis, CA). Seventy-two hours post-transfection, cells were pelleted and sonicated (3 × 10 s at 4 °C) in lysis buffer containing NaHPO4 (50 mM, pH 8), NaCl (300 mM), glycerol (10%), EDTA (1 mM), phenylmethanesulfonyl fluoride (1 mM), leupeptin (10 μg/mL), and a soybean trypsin inhibitor (60 μg/mL). Supernatants after centrifugation at 100,000 × g (60 min, 4 °C) were subjected to benzylthio-sepharose-affinity chromatography in order to purify sEH by elution with 4-fluorochalcone oxide in PBS containing 1 mM DTT and 1 mM EDTA. Dialyzed and concentrated (Millipore Amicon-Ultra-15 centrifugal filter) enzyme solution was assayed for total protein with a Bio-Rad protein detection kit (Bio-Rad Laboratories, Munich, Germany), and the epoxide hydrolase activity was determined by using a fluorescence-based assay as described before.[47] Shortly, sEH was diluted in Tris buffer (25 mM, pH 7) supplemented with BSA (0.1 mg/mL) to an appropriate enzyme concentration and preincubated with test compounds or vehicle (0.1% DMSO) for 10 min at room temperature (RT). The reaction was started by the addition of 50 μM 3-phenyl-cyano(6-methoxy-2-naphthalenyl)methyl ester-2-oxiraneacetic acid (PHOME), a nonfluorescent compound that is enzymatically converted into fluorescent 6-methoxy-naphtaldehyde at RT. After 60 min, reactions were stopped by ZnSO4 (200 mM) and fluorescence was detected (λem 465 nm, λex 330 nm) using a NOVOstar microplate reader (BMG Labtech GmbH, Ortenberg, Germany), and potential fluorescence of test compounds was subtracted from the read-out, if required.

In data set [4] the test system is FLAP-mediated cellular LT formation in human neutrophils. Put plainly: FLAP-dependent 5-LO product formation in intact neutrophils. Type of data set: cell-based. Conditions: Neutrophil; for IC50: Homo sapiens, intact neutrophils challenged with 2.5 μM ionophore plus 20 μM arachidonic acid; for activity at 1 µM: 1 μM inhibitor, read-out: 5-LO product formation in neutrophils, remaining activity (% of control) at 1 μM; for activity at 1 µM / activity at 10 µM: human neutrophils, 2.5 μM Ca2+-ionophore A23187, means ± SEM, n = 4–5; for activity at 10 µM: 10 μM inhibitor, read-out: 5-LO product formation in neutrophils, remaining activity (% of control) at 10 μM. As to the method:
Neutrophils were isolated from leukocyte concentrates obtained from freshly withdrawn peripheral blood of healthy adult male and female donors which were provided by the Institute of Transfusion Medicine, University Hospital Jena, Germany. The experimental protocol was approved by the ethical committee of the University Hospital Jena, and all methods were performed in accordance with the relevant guidelines and regulations. The leukocyte concentrates were mixed with dextran (from Leuconostoc spp. MW ∼40,000, Sigma Aldrich) for sedimentation of erythrocytes, and the supernatant was centrifuged on lymphocyte separation medium (Histopaque-1077, Sigma Aldrich). Contaminating erythrocytes in the pelleted neutrophils were removed by hypotonic lysis using distilled water. The neutrophils were washed twice in ice-cold PBS pH 7.4 and finally resuspended in PBS pH 7.4 plus 1 mg/mL glucose (PGC buffer).
Human neutrophils [5 × 10^6; in PGC buffer; incubation volume, 1 mL] were preincubated with 0.1% DMSO (vehicle) or with the compounds at 37 °C for 15 min. […] Samples were then subjected to solid-phase extraction on C18-columns (100 mg, UCT, Bristol, PA), and 5-LO products (LTB4 and its trans-isomers, and 5-H(p)ETE) were extracted and analyzed in the presence of internal standard PGB1 by RP-HPLC and UV detection as reported elsewhere.[45]

Consider `O=C(O)c1ccc2c(=O)n(Cc3ccccc3)c(SCc3ccc(Cl)c(Cl)c3)nc2c1` [Compound 5], for which the “activity against sEH (in words)” value at Human recombinant sEH [1] is “without any activity against sEH”. The half-inhibitory concentration (IC50) (usually the midpoint of a concentration-inhibition curve) in data set [2] is 870 nM.

Regarding `CC(C)(C)CNC(=O)c1ccc2c(=O)[nH]c(SCc3ccc(Cl)cc3)nc2c1` [Compound 36, 2-((4-Chlorobenzyl)thio)-N-neopentyl-4-oxo-3,4-dihydroquinazoline-7-carboxamide], the melting point (in general, the temperature, or range, at which the solid turns liquid) lay in the range of 220 to 222 °C. Also, the IC50 on Human recombinant sEH [3] is 1100 ± 100 nM. Further, in data set [4], the IC50 was less than 10000 nM, the activity at 1 µM came out at 89.5 ± 8.9% and the activity at 10 µM was 29.7 ± 7.2%.

`CC(C)(C)CNC(=O)c1ccc2c(=O)[nH]c(SCc3ccccc3C(F)(F)F)nc2c1` [Compound 37, 2-((2-(Trifluoromethyl)benzyl)thio)-N-Neopentyl-4-oxo-3,4-dihydroquinazoline-7-carboxamide] came in with a melting point of 217.9 to 219.3 °C. Further, on Human recombinant sEH [3], the IC50 is 500 ± 50 nM. In data set [4], the half-maximal inhibitory concentration (IC50) is less than 10000 nM, the activity at 1 µM worked out at 97.6 ± 4% and the activity at 10 µM came to 20.9 ± 12.1%.

In turn, `CC(C)(C)CNC(=O)c1ccc2c(=O)[nH]c(SCc3ccc(Cl)c(Cl)c3)nc2c1` [Compound 38, 2-((3,4-Dichlorobenzyl)thio)-N-neopentyl-4-oxo-3,4-dihydroquinazoline-7-carboxamide] registered a melting point of 215.5 to 216.9 °C. At Human recombinant sEH [3], the IC50 came out at 1600 ± 100 nM. Besides, in data set [4], the IC50 was less than 10000 nM, the activity at 1 µM came to 105 ± 3.1% and the activity at 10 µM was found to be 34.9 ± 10.6%.

For the molecule `CC(C)NC(=O)c1ccc2c(=O)[nH]c(SCc3ccccc3Cl)nc2c1` [Compound 45, 2-((2-Chlorobenzyl)thio)-N-isopropyl-4-oxo-3,4-dihydroquinazoline-7-carboxamide], the melting point is 306.3 °C (dec.). Besides, at Human recombinant sEH [3], the IC50 was greater than 10000 nM and the remaining activity (commonly the activity still measured, relative to the control) at 10 µM amounted to 71%. Besides, in data set [4], the 50% inhibitory concentration (IC50) was greater than 10000 nM, the activity at 1 µM stood at 96.6 ± 6.7% and the activity at 10 µM came to 70.3 ± 21.4%.

As for `CC(C)(C)CNC(=O)c1ccc2c(=O)[nH]c(NCc3ccccc3Cl)nc2c1` [Compound 55, 2-((2-Chlorobenzyl)amino)-N-neopentyl-4-oxo-3,4-dihydroquinazoline-7-carboxamide], the melting point is 176.7 to 178.7 °C. For the same molecule, at Human recombinant sEH [3], the IC50 was greater than 10000 nM and the remaining activity at 10 µM is 68%. In addition, in data set [4], the half-maximal inhibitory concentration (IC50) turned out to be 2700 ± 800 nM, the activity at 1 µM turned out to be 77.9 ± 12.1% and the activity at 10 µM stood at 8.9 ± 3.6%.
